We go through 28 molecules from ChEMBL document CHEMBL1134300, “Oxindole-based inhibitors of cyclin-dependent kinase 2 (CDK2): design, synthesis, enzymatic activities, and X-ray crystallographic analysis” (J Med Chem, 2001).

The target in assay [1] is Cyclin-dependent kinase 2 (Homo sapiens, UniProt P24941).
Description: Inhibitory activity against human cyclin-dependent kinase 2 (CDK2)
For assay [2], the target named is Cyclin-dependent kinase 1 (Homo sapiens, UniProt P06493).
Sequence of Cyclin-dependent kinase 1 (P06493 whole entry): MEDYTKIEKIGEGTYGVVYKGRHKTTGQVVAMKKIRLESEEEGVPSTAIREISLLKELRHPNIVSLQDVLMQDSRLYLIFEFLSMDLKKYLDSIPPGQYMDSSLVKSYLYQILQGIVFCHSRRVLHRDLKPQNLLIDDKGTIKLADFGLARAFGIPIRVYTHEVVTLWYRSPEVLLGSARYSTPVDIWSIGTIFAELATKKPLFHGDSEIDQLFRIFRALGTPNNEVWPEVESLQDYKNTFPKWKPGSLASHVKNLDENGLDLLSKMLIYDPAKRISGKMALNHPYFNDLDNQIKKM
Description: Inhibitory activity against human cyclin-dependent kinase 1 (CDK1)

Turning to `CC(C)(C)c1ccc2c(c1)NC(=O)/C2=N\Nc1ccc(S(N)(=O)=O)cc1`, the IC50 in assay [1] and in assay [2] was more than 10000 nM each time.

`COc1ccc2c(c1Cl)C(=NNc1ccc(S(N)(=O)=O)cc1)C(=O)N2`: the concentration for half-maximal inhibition (IC50) (commonly the concentration that inhibits the measured activity by half) was determined as 54 nM in assay [1] and 1700 nM in assay [2].

With `O=C1Nc2ccc3ncsc3c2/C1=C/Nc1ccc(S(=O)(=O)NCCOCCO)cc1`, the concentration for half-maximal inhibition (IC50) in assay [1] amounted to 0.54 nM; in assay [2] it was 12 nM.

On to `COc1cccc(OC)c1CNC(=O)c1ccc2c(c1)C(=NNc1ccc(S(N)(=O)=O)cc1)C(=O)N2`, for which the IC50 was 1.7 nM in assay [1] and 9.3 nM in assay [2].

`NS(=O)(=O)c1ccc(NN=C2C(=O)Nc3cccc(-c4cc[nH]n4)c32)cc1`: the IC50 in assay [1] is 19 nM; in assay [2] it was 250 nM.

Regarding `NS(=O)(=O)c1ccc(NN=C2C(=O)Nc3ccc(O)cc32)cc1`, the IC50 in assay [1] amounted to 10 nM; in assay [2], 77 nM.

On to `C/C(Nc1ccc(S(N)(=O)=O)cc1)=C1/C(=O)Nc2ccccc21` [GW335962X], for which the IC50 in assay [1] was found to be 360 nM; in assay [2] it was 2300 nM.

As for `NS(=O)(=O)c1ccc(NN=C2C(=O)Nc3cccc(CCc4ccncc4)c32)cc1`, the values for the IC50 in assay [1] and in assay [2] were 21 nM and 290 nM, respectively.

In the case of `CCc1cccc2c1C(=NNc1ccc(S(N)(=O)=O)cc1)C(=O)N2`, the IC50 was found to be 7.9 nM in assay [1] and 46 nM in assay [2].

For the molecule `O=C1Nc2ccccc2/C1=C/Nc1ccc(S(=O)(=O)Nc2nccs2)cc1`, in assay [2], 3800 nM corresponded to half-maximal inhibition (IC50).

Take `Cc1cc(Cl)cc2c1NC(=O)/C2=C\Nc1ccc(S(N)(=O)=O)cc1`: the IC50 in assay [1] and in assay [2] was more than 10000 nM each time.

In the case of `CCOc1cccc2c1C(=NNc1ccc(S(N)(=O)=O)cc1)C(=O)N2`, the results for the IC50 in assay [1] and in assay [2] were 93 nM and 550 nM, respectively.

With `NS(=O)(=O)c1ccc(N/N=C2\C(=O)Nc3ccc4ncccc4c32)cc1` [GW305178X], the IC50 was 1.6 nM in assay [1] and 12 nM in assay [2].

Turning to `CS(=O)(=O)c1ccc(N/C=C2\C(=O)Nc3ccc4ncsc4c32)cc1`, the IC50 in assay [1] came to 5.7 nM; in assay [2], 39 nM.

Consider `NS(=O)(=O)c1ccc(N/N=C2\C(=O)Nc3ccccc32)cc1`, for which the IC50 is 120 nM in assay [1] and 1300 nM in assay [2].

On to `NS(=O)(=O)c1ccc(NN=C2C(=O)Nc3cc(Oc4ccccc4)ccc32)cc1`, for which the half-maximal inhibitory concentration (IC50) in assay [1] and in assay [2] was more than 10000 nM each time.

For the molecule `NS(=O)(=O)c1ccc(NC=C2C(=O)Nc3ccc4ncsc4c32)cc1` [GW589933X], the IC50 in assay [1] was found to be 2.8 nM; in assay [2], 29 nM.

For `N=C(N)NS(=O)(=O)c1ccc(N/C=C2\C(=O)Nc3ccc4ncsc4c32)cc1`, the IC50 in assay [1] was determined as 3.3 nM; in assay [2] it was 45 nM.

Regarding `CC(C)c1cccc2c1C(=NNc1ccc(S(N)(=O)=O)cc1)C(=O)N2`, the IC50 in assay [1] turned out to be 2.5 nM; in assay [2], 37 nM.

As to `O=C1Nc2ccc3ncsc3c2/C1=C/Nc1ccc(S(=O)(=O)Nc2ccccc2)cc1`, the figures for the IC50 in assay [1] and in assay [2] were 4.3 nM and 41 nM, respectively.

Consider `CC(C)COC(=O)c1ccc2c(c1)/C(=C/Nc1ccc(S(N)(=O)=O)cc1)C(=O)N2` [GW416981X], for which the IC50 worked out at 3 nM in assay [1] and 19 nM in assay [2].

For `CN(c1ccccn1)S(=O)(=O)c1ccc(N/C=C2\C(=O)Nc3ccc4ncsc4c32)cc1`, the IC50 in assay [1] worked out at 5.6 nM; in assay [2], 64 nM.

With `NS(=O)(=O)c1ccc(N/C=C2\C(=O)Nc3cc(CO)ccc32)cc1`, the IC50 was 61 nM in assay [1] and 740 nM in assay [2].

`O=C1Nc2ccc3ncsc3c2/C1=C/Nc1ccc(S(=O)(=O)N[n+]2ccc3ccccc3c2)cc1`: in assay [2], inhibition was half-maximal at 42 nM (IC50).

`NS(=O)(=O)c1ccc(N/N=C2\C(=O)Nc3cccc(/C=C/c4ccc(O)cc4)c32)cc1` yielded an IC50 in assay [2] of 170 nM.

`CNS(=O)(=O)Cc1ccc(NN=C2C(=O)Nc3ccc4ncsc4c32)cc1` yielded an IC50 in assay [2] of 56 nM.

In assay [2], `O=C1Nc2ccc3ncsc3c2/C1=C/Nc1ccc(S(=O)(=O)Nc2ccccn2)cc1` had an IC50 of 100 nM.

In assay [2], `CNS(=O)(=O)c1ccc(N/C=C2\C(=O)Nc3ccccc32)cc1` gave an IC50 of 2900 nM.
